Patent US20150105329A1, “Methods and Pharmaceutical Compositions for Prevention or Treatment of Ischemia Related Organ Damage” (INSERM (Institut National de la Sante et de la Recherche …, priority 2012, published 2015)

Key:
[1] = tested on: myocardial ischemia/reperfusion injury; assay: Myocardial ischemia/reperfusion injury, infarct size; format: in vivo, C57/Bl6J mice; settings: for decrease of infarct size vs saline: 30 min ischemia, 3 h reperfusion, p<0.05 vs saline
Protocol: Adult C57/Bl6J mice of 12-15 weeks old (20-30 g) were anesthetized with sodium pentobarbital (60 mg/kg, i.p.). The animals were intubated and ventilated with 100% oxygen (200 μl/breath at a rate of 170 breaths/min), using a Harvard rodent ventilator (Model 845, Harvard Apparatus, Les Ulis, France). Body temperature was monitored with a rectal probe connected to a digital thermometer, and maintained at 37° C. using a heating pad. A catheter was inserted into the jugular vein for bolus injection of drug (0.01 ml/10 g BW, 10-20 sec). The electrocardiogram (ECG) was recorded throughout the experiments on a Gould TA240 recorder (ECG biotech; Gould Instruments, Cleveland, Ohio, USA). A left thoracotomy was performed to expose the heart, and the pericardium was removed. The left anterior descending coronary artery was occluded with an 8.0 prolene suture, 2 mm from the tip of the left atrium for 30 min. Successful coronary occlusion was verified by the development of a pale color in the distal myocardium and by ST segment elevation and QRS widening on the ECG. After 30 min of sustained ischemia, coronary blood flow was restored by loosening the suture. Successful reperfusion was confirmed by visualization of hyperaemic response and restoration of normal ECG. The lungs were then reinflated by increasing positive end expiratory pressure, and the chest was closed. Reperfusion was maintained for a 3-h period. Drugs dissolved in isotonic saline were injected 5 minutes before reperfusion. B2 receptor agonist was administrated at different non hypotensive dosages as defined in preliminary experiments. To ensure the role of specific activation of B2 receptor, B2 agonist was tested with pretreatment by B2R antagonist (HOE140). After reperfusion, the chest was reopened, the coronary artery was reoccluded, and 0.5 ml of a 5% Evans blue solution was injected as a bolus into the jugular vein in order to delineate the area at risk (AR), which remained unstained by the Evans blue. The heart was excised, and the left ventricle (LV) was isolated, weighed, and sliced into 4 transverse pieces from base to apex, the first cutter blade being positioned at the site of the coronary occlusion. The slices were weighed, and color digital images of both sides of each slice were obtained with a Power Shot S50 zoom digital camera (Canon, Tokyo, Japan) connected to a microscope (Leica M Z 75; Leica Microsystems, Rueil-Malmaison, France), using the Adobe Photoshop software (Adobe Systems, San Jose, Calif., USA). The slices were then incubated at 37° C. with buffered 1% 2,3,5-triphenyltetrazolium chloride (TTC) solution for 20 min. Viable myocardium, which contained dehydrogenases, reacted with TTC and was stained brick red, whereas any necrotic tissue remained unstained due to the lack of active enzymes. The tissue sections were then fixed in a buffered 10% formalin solution for 24 h before being photographed again to delineate the IS. The cross-sectional area, the lumen area, the AR (unstained by Evans blue), and IS (unstained by TTC) of the LV were outlined on each color image and quantified by a masked observer using the Scion Image software (Scion Image for Windows; http://www.scioncorp.com). The absolute weights of AR and IS were then calculated for each slice. The sum of the absolute weight values of AR and IS of the 3 ischemic slices of each heart was calculated and expressed as a percentage of the total weight of the slice. The ratio of IS to AR was calculated from these absolute weight evaluations and expressed as a percentage of AR.

[2] = tested on: hindlimb ischemia in streptozotocin-diabetic mice; assay: Peripheral (hindlimb) ischemia in diabetic mice, neovascularization; format: in vivo, C57BL/6J mice
Protocol: Two-to three-month-old male C57BL/6J mice were used. Type 1 diabetes was induced by 5 daily ip injections of low-dose of streptozotocin (50 mg/kg dissolved in 0.05M sodium citrate buffer, pH 4.5). Ischemia of hinlimb was induced by permanent ligation of the right femoral artery once the diabetes is established (hyperglycemia >300 mg/dl, 4 weeks after streptozocin injections). Mice were anesthetized by isoflurane inhalation (0.8% in oxygen stream) and the proximal part of the femoral artery just below the origin of the circumflexa femoris lateralis was occluded with a silk suture. Concomitantly with the surgery, half the mice was treated with the B2 agonist (30 nmol/kg·h^−1), infused continuously through osmotic minipumps implanted subcutaneously. The other half of the mice was infused with the vehicle (isotonic saline). Healthy mice, non diabetic without ischemia were used as control.
Two weeks after the onset of ischemia, neovascularization was evaluated by two methods. —Arteries were quantified by high definition microangiography using barium sulfate and digital X-ray transducer. Mice were anesthetized (Pentobarbital injection, 60 mg/kg, I.P.) and longitudinal laparatomy was performed to introduce a polyethylene catheter into the abdominal aorta to inject contrast medium (Barium sulfate, 1 mg/ml). Images (two per animal) were acquired using a high-definition digital X-ray transducer. Vessel density was expressed as a percentage of pixels per image occupied by vessel density in the quantification area. —Capillary density was analyzed by immunohistochemistry using fibronectin-FITC antibody. Frozen tissue sections (7 μm) from calf muscle were incubated with rabbit polyclonal antibody directed against total fibronectin (dilution 1:50) to identify capillaries. The number of capillary by field was determined in both ischemic and nonischemic legs. Results are expressed as ischemic to nonischemic ratio.

hB2R [3] = target: T1, hB2R (Homo sapiens, UniProt P30411); settings: naturally expressed and recombinant hB2R; cited from earlier work
T1 sequence (P30411 1-391): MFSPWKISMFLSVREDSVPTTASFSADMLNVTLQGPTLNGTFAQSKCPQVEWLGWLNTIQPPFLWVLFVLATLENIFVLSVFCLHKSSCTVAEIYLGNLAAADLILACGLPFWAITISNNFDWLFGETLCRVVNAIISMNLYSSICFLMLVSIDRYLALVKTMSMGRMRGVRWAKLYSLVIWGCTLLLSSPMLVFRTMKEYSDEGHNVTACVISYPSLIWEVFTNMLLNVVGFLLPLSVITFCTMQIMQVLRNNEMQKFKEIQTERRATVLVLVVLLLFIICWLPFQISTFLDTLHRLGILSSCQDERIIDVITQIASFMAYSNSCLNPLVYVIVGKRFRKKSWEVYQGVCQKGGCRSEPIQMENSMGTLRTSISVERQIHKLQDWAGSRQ

hB2R [4] = target: T1, hB2R; settings: naturally expressed and recombinant hB2R; cited from earlier work; remark: listed apart in the source
[5] = cited from earlier work
[6] = 30 nmol/kg·h s.c. osmotic minipump, 14 days of ischemia

| Substance | effect on infarct size ([1]; antagonist given alone) | effect on cardioprotection by B2 agonist ([1]; pretreatment with B2R antagonist before B2 agonist) | decrease of infarct size vs saline ([1]; 0.01 nmol/kg i.v. bolus 5 min before reperfusion) | decrease of infarct size vs saline ([1]; 0.1 nmol/kg i.v. bolus 5 min before reperfusion) | decrease of infarct size vs saline ([1]; 0.3 nmol/kg i.v. bolus 5 min before reperfusion) | infarct size relative to area at risk ([1]; acute administration, FIG. 1) | angiographic score [2, 6] | capillary density [2, 6] | angiogenic effect ([2]; chronic administration 30 nmol/kg·h, FIG. 2) | in vitro affinities compared with bradykinin (hB2R [3]) | in vitro potencies compared with bradykinin (hB2R [4]) | potency and duration of action in vivo compared with bradykinin [5] |
| --- | --- | --- | --- | --- | --- | --- | --- | --- | --- | --- | --- | --- |
| HOE140 | no effect on infarct size | suppressed the cardioprotective effect of B2 agonist | – | – | – | – | – | – | – | – | – | – |
| [Hyp(3), Thi(5), (N)Chg(7), Thi(8)]-BK [peptide 20] | – | – | −37.2% | −47.3% | −35.6% | Reducing effect | increase | increase | proangiogenic effect | greater | greater | highly superior to bradykinin |
